Results from patent US10689415B2, “Conjugates of RGD peptides and (bacterio)chlorophyll photosensitizers” (YEDA RESEARCH AND DEVELOPMENT COMPANY LTD., priority 2006, dated 2020).
Where no end group is shown, it is not given here.

Columns and labels:
[1] = tested on: rat C6 glioma xenografts; experiment: Whole-body NIR fluorescence imaging, rat C6 glioma xenografts; assay type: in vivo, CD-1 nude male mice; conditions: 200 nmol dose, 4 to 72 hours post injection
Excerpt: The in Vivo Optical Imaging System (IVISR100/XFO-12, Xenogen Corp., Alameda, Calif., USA) was used to acquire fluorescent images of the RFP-expressing tumors, as well as photosensitizers associated with tissues and organs after their intravenous (i.v.) infusion to the tested animals. The field-of-view was 15 cm. Two images were taken; the first image is black and white, providing a photograph of the animal. The second image is a colored overlay of the emitted photon data, in the present case the NIR fluorescence of the compound (680-720 nm excitation filter and a 780-810 nm emission filter) or bioluminescence (560 nm) as described below. […]
Dynamic fluorescence images were acquired immediately following the injection of a conjugate of the invention and continued for approximately 2 hours. Fluorescence images were also obtained under isoflurane anesthesia for up to 72 hr after initial injection of the conjugate. […]
Dynamic fluorescence images were obtained from CD-1 nude male mice bearing rat C6 glioma xenografts. The fluorescence images were acquired using IVIS system as described in Materials and Methods. […]
Specific binding is defined as one inhibited by the unconjugated sensitizer. […] Fluorescence images of the blocked receptor xenografts with the same exposure time are illustrated in FIG. 19 on the same linear color scale to allow for a qualitative comparison. […]

[2] = tested on: H5V endothelial cells; experiment: Phototoxicity assay (Neutral Red cell viability after illumination); assay type: cell-based, mouse; conditions: for LD50: Table 3: 10 μM BSA in medium (90 min, 37° C.)
Description: The light source for in vitro studies was home-built 100-W halogen lamp equipped with a high-pass filter (>650 nm, Safelight filter 1A Eastman Kodak Co., Rochester, N.Y., USA) and a 4-cm water filter. The lamp was used to illuminate (20 mW/cm^2/10 min (12 J/cm^2)) the culture plates from the bottom at room temperature in a dark room.
To determine the pigment photodynamic efficacy in vitro under standard conditions, cells were cultured in 96-well plates and preincubated for 15 or 90 min at 37° C. or 4° C., according to the indicated experiment protocol, with 0-25 μM conjugated or non-conjugated photosensitizer in different media conditions (culture medium DMEM/F12; 10% FCS in medium or 10 μM BSA in medium) in the absence or presence of excess free peptide (100 fold up to 1 mM). The cells were washed and illuminated (20 mW/cm^2 for 10 min). Plates were placed back in the culture incubator for 24 h. Cell survival was determined using Neutral Red cell viability assay. Cell survival was calculated as the percent of the dye accumulated in the untreated controls. […] Three kinds of controls were used: (i) light control: cells illuminated in the absence of pigments; (ii) dark control: cells treated with pigments but kept in the dark; and (iii) untreated cells that were kept in the dark.
Following photosensitization and a 24-h incubation period (37° C.), cell survival was determined by Neutral Red (Fluka Chemie, Buchs, Switzerland) accumulation. After subtraction of assay blanks, net optical density (570 nm) was computed as the average value of triplicates determinations. Cell survival was calculated as the percent of the dye accumulated in the untreated controls.
H5V cells were incubated for 90 min at 37° C. with 0-25 μM of conjugate 23 or compound 10 in different media conditions, illuminated and their survival was determined using Neutral Red viability assay as described in Materials and Methods.
Targeted phototoxicity is defined as one inhibited by the free ligand. Thus, further experiments attempted to block phototoxicity by administration of the free cycloRGDfK, which competes for the cellular binding of conjugate 23. H5V cells were incubated for 90 min at 37° C. with 0-25 μM of compound 10 or conjugate 23 in different media (10% FCS in medium or 10 μM BSA in medium) in the absence or presence of free excess cycloRGDfK (100-fold up to 1 mM). The cells were illuminated and cell survival was determined using Neutral Red viability assay, as described above.
In order to test the endocytosis theory and since the endocytic process is time- and temperature-dependent, H5V cells were incubated at 37° C. and 4° C. for 15 min with 0-20 μM of conjugate 23 in medium containing 10% FCS, in the presence or absence of excess cycloRGDfK (100-fold up to 1 mM). Cells were illuminated and their survival was determined as described above.
The phototoxicity of conjugate 24 was determined by monitoring the survival of cultured H5V endothelial cells following PDT. H5V cells were incubated for 2 hours at 37° C. with 0-25 μM conjugate 24 in culture medium DMEM/F12 with 10% FCS. The cells were illuminated and their survival was determined as described above.
Cells were incubated for 90 min at 37° C. in the presence of 0-20 μM conjugate 11 or compound 8 in 10 μM BSA in medium, illuminated and their survival was determined as described above.

[3] = tested on: CT26luc colon cancer; experiment: In vivo PDT (VTP) of CT26luc colon cancer; parameters: species or system CD-1 nude male mice; conditions: i.v. injected and illuminated after 8 hours
Description: CD-1 nude male mice bearing the different tumor xenografts were anesthetized and 24 (5-24 mg/kg body weight) or 8 (9 mg/kg body weight) were i.v. injected via the tail vein. The tumors were trans-cutaneously illuminated after 3.5, 6, 8, 12 and 24 hours for 5-30 min at light doses of 30-360 J/cm^2. Intensity of illumination: 100-200 mW/cm^2. After treatment, the mice were returned to the cage. The mice were considered cured if tumor free for 90 days after treatment. Mice were euthanized when the tumor diameter reached 15 mm. […] (5) Mixture of 8 and cycloRGDfK: the mice were i.v. injected with mixture of 8 with cycloRGDfK and illuminated after indicated time point. (6) cycloRGDfK alone: the mice were i.v. injected with cycloRGDfK and illuminated after indicated time point. Images were taken at indicated time post PDT.
FIGS. 32A-32F show the therapeutic results of applying 15 mg/kg, 10 min illumination (60 J/cm^2), 8 hours post injection of conjugate 24 to mice bearing CT26luc tumors (bolded protocol in Table 5). 32A—conjugate 24 was i.v. injected 15 mg/kg, 10 min illumination (60 J/cm^2) 8 hours post injection; 32B—overlaid images taken after i.p. injection of luciferin to the mouse described in 32A, using the IVIS system. The first image is black and white, which gives the photograph of the animal. The second image is color overlay of the emitted photon data. […]

[4] = Solubilization for in vitro experiments (water solubility); assay type: physicochemical
Description: Compound 24 was dissolved in 100% DMSO before use and diluted in saline to a final DMSO concentration of 5% v/v.

[5] = tested on: tumor grafts of mouse CT26luc colon carcinoma; experiment: Biodistribution (Pd by ICP-MS) in mice with CT26luc colon carcinoma grafts; assay type: in vivo, CD1 nude male mice; conditions: 8 hours post injection
Description: Anesthetized mice were i.v. injected (tail vein) with the different photosensitizer (pigment) conjugates (control group: untreated). The mice were sacrificed at indicated time points and samples of the indicated organs and tissues (blood, tumor, intestine, liver, spleen, kidneys, testies, heart, lung, brain, skin, muscle and fat) were placed in pre-weighted vials and immediately frozen and stored at −20° in the dark until analyzed. Three methods were used for sample preparation: (1) Each sample was thawed and homogenized in DDW (1:10 w/v). Aliquots of the homogenate (500 μl) were lyophilized in Eppendorf test tubes. […] Pd concentrations were determined by ICP-MS. According to method (3), the supernatants were diluted in methanol by a factor of two and the drug concentration was determined by fluorescence measurements (Varian-Cary Eclipse spectrofluorimeter, Palo Alto, Calif., USA) at 750 nm (peak values). Drug concentrations were interpolated from a fluorescence calibration curve, based on predetermined drug concentrations using absorption spectroscopy. […]
The conjugates of the invention are potential drug carriers. […] In order to quantify the conjugate levels in target tissues, Ion Coupled Plasma-Mass Spectroscopy (ICP-MS) was used for tracing the central M atom (e.g., Pd, Cu) in the target organ. […]

[6] = biological target: isolated αvβ3 integrin receptor (Homo sapiens, UniProt P05106+P06756); experiment: Solid-phase receptor assay, Eu-RGD-4C binding competed by RGD-4C; conditions: 100 μM of RGD-4C; highest attenuation
isolated αvβ3 integrin receptor, sequence (P06756 31-889 limits assumed): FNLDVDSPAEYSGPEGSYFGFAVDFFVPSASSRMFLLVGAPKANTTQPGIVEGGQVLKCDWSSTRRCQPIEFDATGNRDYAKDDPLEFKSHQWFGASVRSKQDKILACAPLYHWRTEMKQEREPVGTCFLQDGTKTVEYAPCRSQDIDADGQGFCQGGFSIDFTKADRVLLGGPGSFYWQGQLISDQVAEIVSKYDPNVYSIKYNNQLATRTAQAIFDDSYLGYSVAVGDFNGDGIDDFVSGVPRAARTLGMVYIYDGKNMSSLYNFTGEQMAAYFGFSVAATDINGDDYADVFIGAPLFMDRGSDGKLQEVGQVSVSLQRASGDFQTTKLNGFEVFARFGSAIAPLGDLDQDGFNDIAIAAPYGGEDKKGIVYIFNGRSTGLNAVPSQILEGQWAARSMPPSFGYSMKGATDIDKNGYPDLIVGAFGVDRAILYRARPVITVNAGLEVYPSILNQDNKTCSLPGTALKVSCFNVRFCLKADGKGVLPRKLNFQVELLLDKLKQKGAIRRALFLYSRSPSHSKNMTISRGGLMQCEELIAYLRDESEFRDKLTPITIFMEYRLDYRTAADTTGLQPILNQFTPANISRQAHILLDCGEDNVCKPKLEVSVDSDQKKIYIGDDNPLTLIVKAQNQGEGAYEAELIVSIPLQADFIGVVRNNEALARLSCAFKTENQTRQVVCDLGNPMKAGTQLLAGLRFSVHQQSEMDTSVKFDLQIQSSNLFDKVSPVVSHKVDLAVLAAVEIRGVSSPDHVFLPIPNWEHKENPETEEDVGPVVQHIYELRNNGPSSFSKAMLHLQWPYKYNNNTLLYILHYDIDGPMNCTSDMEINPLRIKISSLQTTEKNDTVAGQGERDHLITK
isolated αvβ3 integrin receptor, sequence (P06756 891-1048 limits assumed): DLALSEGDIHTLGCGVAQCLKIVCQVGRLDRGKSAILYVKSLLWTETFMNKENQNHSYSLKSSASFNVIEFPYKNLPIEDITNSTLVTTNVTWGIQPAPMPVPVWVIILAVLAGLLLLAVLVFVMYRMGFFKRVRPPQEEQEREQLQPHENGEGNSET
isolated αvβ3 integrin receptor, sequence (P05106 27-788): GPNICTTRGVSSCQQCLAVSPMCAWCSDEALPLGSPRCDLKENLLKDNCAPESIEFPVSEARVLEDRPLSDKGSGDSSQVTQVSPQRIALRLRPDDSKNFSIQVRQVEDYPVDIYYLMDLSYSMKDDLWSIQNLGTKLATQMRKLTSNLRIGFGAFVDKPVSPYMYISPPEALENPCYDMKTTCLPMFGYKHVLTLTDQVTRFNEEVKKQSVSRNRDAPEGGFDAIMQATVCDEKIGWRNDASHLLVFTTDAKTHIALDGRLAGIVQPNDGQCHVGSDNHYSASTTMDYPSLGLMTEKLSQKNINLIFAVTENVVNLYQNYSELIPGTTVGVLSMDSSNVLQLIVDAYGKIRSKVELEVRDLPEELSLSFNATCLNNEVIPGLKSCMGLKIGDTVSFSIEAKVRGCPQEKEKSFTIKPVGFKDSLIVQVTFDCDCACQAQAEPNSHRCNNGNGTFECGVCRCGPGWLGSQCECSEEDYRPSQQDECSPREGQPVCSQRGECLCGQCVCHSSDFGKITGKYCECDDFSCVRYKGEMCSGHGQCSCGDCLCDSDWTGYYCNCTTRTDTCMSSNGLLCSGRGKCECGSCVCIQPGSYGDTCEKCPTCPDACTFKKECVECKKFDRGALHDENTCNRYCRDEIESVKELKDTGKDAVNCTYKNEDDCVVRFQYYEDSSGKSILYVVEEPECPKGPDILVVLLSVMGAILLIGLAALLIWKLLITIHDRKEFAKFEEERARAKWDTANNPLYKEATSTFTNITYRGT
Description: The binding of Eu-RGD-4C to isolated αvβ3 integrin receptor was determined using time-resolved fluorometry. Each well of a microtiter plate (Nunc MaxiSorb) was coated with 50 μl of purified receptor (1 μg/ml in PBS) by shaking at 4° C. overnight. The receptor solution was then removed, and each well was blocked with 200 μl of milk (1% w/v milk powder in PBS, 1 hr, room temperature). The plate was then washed with 200 μl of PBS once, and incubated for 1 h at 37° C. with increasing concentrations of RGD-4C in the presence of constant amount of Eu-RGD-4C (10 million F.U./well). The ligand/competitor solution was removed and each well was washed three times with 200 μl PBS. Enhancement solution was added (200 μl/well) to release the chelated Eu. […] Under these experimental conditions, 100 μM of RGD-4C reduced by 50% Eu-RGD-4C binding to the isolated receptor. This value represents the highest attenuation of the Eu-RGD-4C binding, even at RGD-4C highest concentrations.

[7] = tested on: H5V endothelial cells; experiment: Cell detachment (rounding) assay, H5V; assay type: cell-based, mouse
Description: (§1) H5V cells were cultured as monolayers in 3-cm dish for 24-48 h, and further incubated for 1 h with 100 μM RGD-4C at 4° C. or 37° C. The cells were washed once and re-incubated for three hours with fresh culture medium at 37° C. In the same fashion, HUVEC were cultured as monolayers in 6-well plate pre-coated with gelatin for 48 h, and incubated for 1 h with 100 μM RGD-4C at 37° C. The cells were washed once and re-incubated for 24 h with fresh culture medium at 37° C. The morphological changes of the cells were documented using light microscopy.
The biological effect of RGD-4C binding was characterized in H5V cells and Human Umbilical Vein Endothelial Cells (HUVEC) using the cell-rounding assay described in Materials and Methods. The morphological changes of the cells were documented using light microscopy. […] This effect was reversible as the cells recovered following 3 h re-incubation with fresh culture medium (8% rounded cells in dishes with previous presence of RGD-4C versus 6% in the absence of RGD-4C).

[8] = tested on: HUVEC; experiment: Cell detachment (rounding) assay, HUVEC; assay type: cell-based, human; conditions: 100 μM RGD-4C; recovery after 24 h in fresh medium
Description: as §1

[9] = biological target: αvβ5 and αvβ3 integrins; conditions: read-out: affinity constant; reports by others; cited from earlier work

Substance	whole-body fluorescence distribution [1]	phototoxic effects ([2]; 90 min, 37° C., 10 μM BSA in medium, 0-20 μM)	LD50 [2]	LD50 ([2]; with free peptide excess (RGD-4C 1 mM))	PDT effect of controls [3]	water solubility [4]	concentrations in the tumor tissue and blood [5]	reduction of Eu-RGD-4C binding to the isolated receptor [6]	rounded cells (cell detachment from the dish) ([7]; 100 μM RGD-4C, n=200)	rounded cells after 3 h re-incubation with fresh culture medium ([7]; previous presence of RGD-4C, 37° C.)	HUVEC detachment [8]	Kd [9]
Palladium 3^1-oxo-15-methoxycarbonylmethyl-Rhodobacteriochlorin 13^1-(2-sulfoethyl)amide potassium salt [Compound 8, reference compound]	no specific signal could be seen	light- and drug concentration-dependent	1.8 to 2 µM	2 µM	no PDT effect	Water-soluble						
Palladium 3^1-oxo-15-methoxycarbonylmethyl-Rhodobacteriochlorin 13^1-(2-sulfoethyl)amide-17^3-(cycloRADfK)amide potassium salt [Conjugate 42]							quite the same					
the cyclic nonapeptide CDCRGDCFC-NH2 (disulfide (positions not given here)) [RGD-4C]						Water insoluble		50%	99%	8%	induced HUVEC detachment from the dish in a reversible manner	~100 nM
